US12186283B2, “Bismuth-thiol compositions and methods of use” (Microbion Corporation, priority 2018, dated 2025)
Values after ≈ are worked out from the molar mass of the structure shown. Read-outs that look alike come from different tables or passages of the source.

How the values were obtained:
P. aeruginosa = test: Checkerboard FIC assay, BisEDT with CF agents (Example 10); format: cell-based, Pseudomonas aeruginosa; details: for FICB: Colistin FIC in combination with BisEDT; for FICB / MICB: per checkerboard row; for MICB: Colistin MIC in combination with BisEDT; for Drug B MIC: Colistin alone (checkerboard with BisEDT)
[1] = system: Burkholderia cepacia complex; test: as above; format: cell-based, Burkholderia spp.; details: B. multivorans 1795; FIC of Colistin in combination with BisEDT
[2] = system: beta-hemolytic streptococci (S. pyogenes, S. agalactiae); test: Broth microdilution MIC (Example 11); format: cell-based, Streptococcus pyogenes, Streptococcus agalactiae; details: read-out: MIC
[3] = system: Enterococcus spp. (E. faecalis, E. faecium); test: Broth microdilution MIC (Example 11); format: cell-based; details: Enterococcus faecium, VRE, E. faecium MMX 485; VRE, vanA, LevR, CipR, EryR; read-out: MIC

Q: How did the FICB (P. aeruginosa; P. aeruginosa 6322) turn out when Colistin was run?
A: 1

Q: What about the MICB (P. aeruginosa; P. aeruginosa 6322) of the same compound?
A: 0.5 µg/mL

Q: And the “Drug B MIC” value (P. aeruginosa; P. aeruginosa 6322)?
A: 0.5 µg/mL

Q: What about the FICB (P. aeruginosa; P. aeruginosa 6977) of the same compound?
A: 1

Q: And the MICB (P. aeruginosa; P. aeruginosa 6977)?
A: 1 µg/mL

Q: And the “Drug B MIC” value (P. aeruginosa; P. aeruginosa 6977)?
A: 1 µg/mL

Q: And the FICB (P. aeruginosa; P. aeruginosa 7745)?
A: 1

Q: And the MICB (P. aeruginosa; P. aeruginosa 7745)?
A: 0.5 µg/mL

Q: And the “Drug B MIC” value (P. aeruginosa; P. aeruginosa 7745)?
A: 0.5 µg/mL

Q: And the “Drug B MIC” value (P. aeruginosa; P. aeruginosa 8798)?
A: >256 µg/mL

Q: What about the “Drug B MIC” value (P. aeruginosa; P. aeruginosa 9108) of the same compound?
A: 0.5 µg/mL

Q: And the FICB [1]?
A: 1

Q: What does the source list for `C[C@H]1COc2c(N3CCN(C)CC3)c(F)cc3c(=O)c(C(=O)O)cn1c23` [Levofloxacin, reference compound]?
A: MIC ([2]; S. agalactiae MMX 3741, ERY^R CC^R): 0.5 µg/mL (≈ 1.38 µM); MIC ([2]; S. agalactiae MMX 3743, ERY^R CC^R): 1 µg/mL (≈ 2.77 µM); MIC ([2]; S. agalactiae MMX 4077, ERY^R CC^R): 0.5 µg/mL (≈ 1.38 µM); MIC ([2]; S. agalactiae MMX 4079, ERY^R CC^R Pen^R MEM^R): 1 µg/mL (≈ 2.77 µM); MIC ([2]; S. agalactiae MMX 4086, ERY^R CC^R): 0.5 µg/mL (≈ 1.38 µM); MIC [3]: > 64 µg/mL
